How the values were obtained:
[1] = target: Mitogen-activated protein kinase 14 (Homo sapiens) (UniProt Q16539); test: Inhibition of human P38alpha/MAPK at 10 uM in presence of 1 microM ATP
[2] = target: T1, TGF-beta receptor type-1 (Homo sapiens) (UniProt P36897); test: Inhibition of human ALK5 at 10 uM in presence of 1 microM ATP relative to control
T1 sequence (whole entry): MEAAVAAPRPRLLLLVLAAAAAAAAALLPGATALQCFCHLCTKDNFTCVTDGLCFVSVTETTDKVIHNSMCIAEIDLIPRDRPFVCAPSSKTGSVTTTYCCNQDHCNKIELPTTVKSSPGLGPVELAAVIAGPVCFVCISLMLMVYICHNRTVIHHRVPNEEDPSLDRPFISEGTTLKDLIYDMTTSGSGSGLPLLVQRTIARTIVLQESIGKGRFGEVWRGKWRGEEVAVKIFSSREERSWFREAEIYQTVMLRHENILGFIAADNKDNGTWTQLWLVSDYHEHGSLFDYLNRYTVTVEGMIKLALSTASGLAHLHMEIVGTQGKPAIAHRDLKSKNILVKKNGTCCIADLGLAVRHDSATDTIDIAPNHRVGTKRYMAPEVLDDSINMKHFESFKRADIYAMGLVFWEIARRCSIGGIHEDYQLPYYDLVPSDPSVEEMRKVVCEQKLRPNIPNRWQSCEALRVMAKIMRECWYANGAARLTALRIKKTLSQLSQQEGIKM

TGF-beta receptor type-1 = target: T2, TGF-beta receptor type-1 (Homo sapiens, UniProt P36897); test: Inhibition of human ALK5 in presence of 1 microM ATP
T2 sequence (P36897 whole entry): T1 sequence (whole entry)

Chain of Mitogen-activated protein kinase 14 (Homo sapiens) (Q16539 whole entry): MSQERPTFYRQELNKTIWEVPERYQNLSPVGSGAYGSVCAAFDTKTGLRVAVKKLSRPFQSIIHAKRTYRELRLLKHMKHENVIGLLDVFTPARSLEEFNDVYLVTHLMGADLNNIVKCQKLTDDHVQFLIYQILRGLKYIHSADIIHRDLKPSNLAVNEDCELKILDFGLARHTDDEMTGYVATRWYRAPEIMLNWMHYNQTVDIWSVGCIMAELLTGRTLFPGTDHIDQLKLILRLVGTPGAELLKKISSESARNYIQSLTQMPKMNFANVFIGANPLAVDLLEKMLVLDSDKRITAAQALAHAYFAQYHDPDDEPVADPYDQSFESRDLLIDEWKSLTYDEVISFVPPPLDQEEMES

| inhibition [1] [%] | inhibition [2] [%] | IC50 (TGF-beta receptor type-1) [µM] | SMILES |
| --- | --- | --- | --- |
| 18.4 | 34.9 | 34.5 | COc1ccccc1-c1nnn(-c2cccc(C)n2)c1-c1ccc2nccnc2c1 |
| -5.91 | 73.1 | 8.6 | Cc1cccc(-n2nnc(CCC(C)C)c2-c2ccc3nccnc3c2)n1 |
| 40.4 | 17.4 |  | Cc1cccc(-n2nnc(-c3cc(F)cc(F)c3)c2-c2ccc3nccnc3c2)n1 |
| -2.52 | 70 | 7.38 | CCCCc1nnn(-c2cccc(C)n2)c1-c1ccc2nccnc2c1 |
| 30.9 | 8.19 |  | Cc1cccc(-n2nnc(-c3ccc(F)cc3)c2-c2ccc3nccnc3c2)n1 |
|  | 0.26 |  | COc1ccc(-c2nnn(-c3cccc(C)n3)c2-c2ccc3nccnc3c2)cc1 |
| 31.2 | -4.94 |  | Cc1cccc(-n2nnc(-c3ccccc3)c2-c2ccc3nccnc3c2)n1 |
| -6.87 | 23.4 |  | COc1cc(OC)cc(-c2nnn(-c3cccc(C)n3)c2-c2ccc3nccnc3c2)c1 |
| -5.07 | 20.7 |  | Cc1ccc(-c2nnn(-c3cccc(C)n3)c2-c2ccc3nccnc3c2)cc1 |
| -1.94 | 80.8 | 4.69 | Cc1cccc(-n2nnc(Cc3ccccc3)c2-c2ccc3nccnc3c2)n1 |
|  | 20.4 | 50.8 | Cc1cccc(-n2nnc(CCCCO)c2-c2ccc3nccnc3c2)n1 |
